Source: publication PMC4907692, “Engineering vanilloid-sensitivity into the rat TRPV2 channel” (eLife, 2016)

Experiments:
[1] = target: T1, 1D4-tagged TRPV2 QM (Rattus norvegicus, UniProt Q9WUD2, F472S/L507M/L510T/Q530E); experiment: 3H-RTx binding to yeast membranes containing 1D4-tagged TRPV2 QM
T1 construct: made in house; host or cells: S. cerevisiae BJ5457, isolated membranes
T1 sequence (Q9WUD2 1-761 F472S/L507M/L510T/Q530E): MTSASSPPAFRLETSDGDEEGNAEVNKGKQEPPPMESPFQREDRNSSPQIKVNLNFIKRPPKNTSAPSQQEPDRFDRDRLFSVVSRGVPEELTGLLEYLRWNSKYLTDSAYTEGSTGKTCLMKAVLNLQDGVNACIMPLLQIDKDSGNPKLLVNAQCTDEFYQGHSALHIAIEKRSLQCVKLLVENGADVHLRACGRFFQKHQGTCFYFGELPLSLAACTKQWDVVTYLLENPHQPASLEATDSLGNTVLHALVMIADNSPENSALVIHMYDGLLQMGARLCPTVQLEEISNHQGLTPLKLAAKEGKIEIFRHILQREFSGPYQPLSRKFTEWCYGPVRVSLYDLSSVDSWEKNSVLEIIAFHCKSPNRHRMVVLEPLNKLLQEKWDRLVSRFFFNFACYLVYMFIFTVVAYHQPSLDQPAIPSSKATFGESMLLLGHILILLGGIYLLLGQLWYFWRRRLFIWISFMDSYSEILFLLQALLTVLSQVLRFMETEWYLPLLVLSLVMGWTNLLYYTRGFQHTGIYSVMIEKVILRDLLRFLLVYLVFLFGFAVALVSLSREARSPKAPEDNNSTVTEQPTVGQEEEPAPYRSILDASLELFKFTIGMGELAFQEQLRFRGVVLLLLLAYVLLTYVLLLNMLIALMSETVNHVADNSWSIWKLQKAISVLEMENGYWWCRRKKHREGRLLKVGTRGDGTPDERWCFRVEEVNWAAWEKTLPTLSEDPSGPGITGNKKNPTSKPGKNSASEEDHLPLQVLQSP
Excerpt: To examine the strength of RTx binding to the TRPV2 channel, we undertook binding assays after expressing 1D4-tagged TRPV2 and TRPV2 QM in S. cerevisiae and isolating yeast membranes, similar to the experiments described above with TRPV1 (Figure 2). […] To examine the relative importance of the four residues for mediating RTx sensitivity in the TRPV2 QM, we constructed triple mutants and evaluated their sensitivity to RTx electrophysiologically.
The full-length TRPV1 and TRPV2 channels with 1D4 affinity tags ([…]) on their C-termini were cloned into the YEpHIS vector and expressed in the BJ5457 strain of S. cerevisiae using the strong constitutively active PMA1 promoter, as previously described ([Moiseenkova-Bell et al., 2008]). After 48 hr of expression at 30°C in YPD media, cells were harvested by centrifugation and re-suspended in PBS buffer, supplemented with complete protease inhibitor cocktail (Roche, Indianapolis, IN) and 4-amidinophenylmethanesulfonyl fluoride hydrochloride (APMSF) (Sigma-Aldrich, St. Louis, MO). Cells were broken by passing through an Avestin homogenizer at the pressure of 35 kpsi, cell lysate was cleared by centrifugation at 8,000 g for 15 min and membranes were isolated by ultracentrifugation at 190,000 g for 1 hr. […]
S. cerevisiae cells overexpressing TRPV1 constructs to be used in ligand binding assays on intact cells (Figure 1E,F) were grown as for small scale expression trials. 24 hr after protein induction cells were spun down at 4000g, the supernatant was removed and the pellet resuspended in 1x PBS, normalizing OD600 to 75 for each sample, and aliquoted for storage at -80°C. ^3H-RTx binding assays on cells were performed at 37°C as previously described ([Feng et al., 2015]), but where non-specific binding of RTx was measured using cells expressing GFP alone. […] Data for binding of RTx to membranes was corrected for non-specific binding, determined using either excess non-radioactive ligand or heat inactivation of the protein, as previously described ([Feng et al., 2015]). […]

[2] = target: T2, TRPV1 Y511A (dual GFP- and His-tagged) (Rattus norvegicus, UniProt O35433, Y511A); experiment: 3H-RTx binding to intact S. cerevisiae cells expressing TRPV1 Y511A; conditions: 37°C, Figure 1F
T2 construct: expressed in transfected cells; host or cells: Saccharomyces cerevisiae (intact cells)
Procedure: To evaluate whether these constructs were competent to bind vanilloids, we initially measured the binding of [^3H]-RTx ([Szallasi and Blumberg, 1999]; [Szallasi et al., 1999]) to intact yeast cells expressing each of the constructs.
S. cerevisiae cells overexpressing TRPV1 constructs to be used in ligand binding assays on intact cells (Figure 1E,F) were grown as for small scale expression trials. 24 hr after protein induction cells were spun down at 4000g, the supernatant was removed and the pellet resuspended in 1x PBS, normalizing OD600 to 75 for each sample, and aliquoted for storage at -80°C. ^3H-RTx binding assays on cells were performed at 37°C as previously described ([Feng et al., 2015]), but where non-specific binding of RTx was measured using cells expressing GFP alone. The binding of RTx to TRPV1 and TRPV2 in membranes (e.g. Figure 2A,B and 5C) was performed at 37°C unless otherwise stated using membranes prepared from large scale protein preparations of S. cerevisiae containing rat TRPV1 and TRPV2 with a 1D4 tag expressed using a constitutive promoter as in [Moiseenkova-Bell et al., 2008]. Data for binding of RTx to membranes was corrected for non-specific binding, determined using either excess non-radioactive ligand or heat inactivation of the protein, as previously described ([Feng et al., 2015]). […]

T2 sequence (O35433 whole entry Y511A): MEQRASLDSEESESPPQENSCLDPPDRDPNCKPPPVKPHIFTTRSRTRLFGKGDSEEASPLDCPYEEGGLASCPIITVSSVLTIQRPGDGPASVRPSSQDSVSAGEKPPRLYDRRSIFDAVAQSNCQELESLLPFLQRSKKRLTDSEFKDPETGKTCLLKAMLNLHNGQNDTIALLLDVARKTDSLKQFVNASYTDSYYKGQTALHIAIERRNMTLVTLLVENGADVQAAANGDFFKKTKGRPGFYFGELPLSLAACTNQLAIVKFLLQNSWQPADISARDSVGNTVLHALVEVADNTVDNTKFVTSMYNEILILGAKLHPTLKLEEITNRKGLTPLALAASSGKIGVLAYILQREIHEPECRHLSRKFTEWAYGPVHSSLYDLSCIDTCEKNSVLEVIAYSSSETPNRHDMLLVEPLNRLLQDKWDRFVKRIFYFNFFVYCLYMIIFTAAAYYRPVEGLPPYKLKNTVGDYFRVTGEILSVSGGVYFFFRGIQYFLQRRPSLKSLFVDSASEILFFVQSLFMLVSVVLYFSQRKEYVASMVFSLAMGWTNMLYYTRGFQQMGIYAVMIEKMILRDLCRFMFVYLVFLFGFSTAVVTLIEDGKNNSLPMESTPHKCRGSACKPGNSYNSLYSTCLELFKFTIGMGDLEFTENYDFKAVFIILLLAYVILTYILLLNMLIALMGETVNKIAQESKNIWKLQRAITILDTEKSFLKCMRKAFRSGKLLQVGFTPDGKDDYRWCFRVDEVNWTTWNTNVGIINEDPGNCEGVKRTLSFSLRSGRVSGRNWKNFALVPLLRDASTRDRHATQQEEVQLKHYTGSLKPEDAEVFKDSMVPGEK

C=C(C)[C@]12C[C@@H](C)[C@@]34O[C@](Cc5ccccc5)(O[C@@H]1[C@@H]3C=C(COC(=O)Cc1ccc(O)c(OC)c1)C[C@]1(O)C(=O)C(C)=C[C@@H]41)O2 [RTx, resiniferatoxin]
affinity of RTx for TRPV2 QM lower compared to TRPV1 [1]: about 30 fold
Hill slope (nH) ([1]; 37°C): 1.7
Kd ([1]; 37°C, read-out: Kd of 3H-RTx binding (Hill fit)): 18 nM
Hill slope (nH) [2]: 1.1
Kd ([2]; read-out: Kd of 3H-RTx binding (Hill fit)): > 238 nM
